What all share (format): biochemical
Settings in all cases: ATP 5 μM

One assay deals with EGFR (L858R/T790M) (Homo sapiens (Human), UniProt P00533, L858R/T790M). Briefly: Inhibitory activity for EGFR (L858R/T790M) kinase. Here is the method:
(§1) A 50 ng/μL EGFR (L858R/T790M, Carna) stock solution was diluted with a kinase buffer (50 mM HEPES, 10 mM MgCl2, 2 mM DTT, 1 mM EGTA, 0.01% Tween 20), and 6 μL of 1.67× working solution at 0.004175 ng/μL (final concentration: 0.0025 ng/μL) was added to each well. Different compounds dissolved in DMSO were added to wells using a nanoliter pipettor, resulting in the final concentrations of the compounds of 10 nM to 0.0024 nM (4-fold gradient, 7 concentrations in total), and blank control wells (without enzyme) and negative control wells (with enzyme, plus vehicle DMSO) were set, 2 replicate wells for each concentration. After enzyme was reacted with the compound or vehicle for 30 min, 5×ATP at 25 μM (final concentration: 5 μM, Sigma) prepared with a kinase buffer was mixed with 5× substrate at 0.5 μM (final concentration: 0.1 μM, ULight-poly GT, PerkinElmer) at a ratio of 1:1 (v:v), and the mixture was added to each well at 4 μL/well. After being sealed with a film, the plate was incubated at room temperature for 2 h, and then 5 μL of 4×EDTA at 40 mM (final concentration: 10 mM) was added to each well. After the plate was incubated for 5 min at room temperature, 5 μL of 4× detection reagent at 8 nM (final concentration: 2 nM, Eu-anti-phospho-tyrosine antibody, PerkinElmer) was added to each well. After being incubated at room temperature for 1 h, the plate was read using a PerkinElmer Envision multi-mode microplate reader (excitation: 320 nm, emission: 665 nm), and IC50 was calculated by four-parameter fitting.

A further assay concerns the target EGFR (L858R/T790M/C797S) (Homo sapiens (Human), UniProt P00533, C797S/L858R/T790M). Put plainly: Inhibitory activity for EGFR (L858R/T790M/C797S) kinase. Here is the method:
as §1, with “(L858R/T790M/C797S, BPS)” for “(L858R/T790M, Carna)”, “0.00167” for “0.004175”, “0.001” for “0.0025”

The target of a further assay is EGFR (WT) (Homo sapiens (Human), UniProt P00533). Put plainly: Inhibitory activity for EGFR (WT) kinase. Here is the method: A 50 ng/μL EGFR (WT, Carna) stock solution was diluted with a kinase buffer (50 mM HEPES, 10 mM MgCl2, 2 mM DTT, 1 mM EGTA, 0.01% Tween 20), and 6 μL of 1.67× working solution at 0.005 ng/μL (final concentration: 0.003 ng/μL) was added to each well. Different compounds dissolved in DMSO were added to the wells using a nanoliter pipettor, resulting in the final concentrations of the compounds of 100 nM to 0.0244 nM (4-fold gradient for 7 concentrations in total), and blank control wells (without enzyme) and negative control wells (with enzyme, plus vehicle DMSO) were set, 2 replicate wells for each concentration. After enzyme was reacted with the compound or vehicle for 30 min, 5×ATP at 25 μM (final concentration: 5 μM, Sigma) prepared with a kinase buffer was mixed with 5× substrate at 0.5 μM (final concentration: 0.1 μM, ULight-poly GT, PerkinElmer) at a ratio of 1:1 (v:v), and the mixture was added to each well at 4 μL/well. After being sealed with a film, the plate was incubated at room temperature for 2 h, and then 5 μL of 4×EDTA at 40 mM (final concentration: 10 mM) was added to each well. After the plate was incubated for 5 min at room temperature, 5 μL of 4× detection reagent at 8 nM (final concentration: 2 nM, Eu-anti-phospho-tyrosine antibody, PerkinElmer) was added to each well. After being incubated at room temperature for 1 h, the plate was read using a PerkinElmer Envision multi-mode microplate reader (excitation: 320 nm, emission: 665 nm), and IC50 was calculated by four-parameter fitting.

Each structure is given as a SMILES string.

Chain of EGFR (L858R/T790M/C797S) (P00533 25-1210 T790M/C797S/L858R): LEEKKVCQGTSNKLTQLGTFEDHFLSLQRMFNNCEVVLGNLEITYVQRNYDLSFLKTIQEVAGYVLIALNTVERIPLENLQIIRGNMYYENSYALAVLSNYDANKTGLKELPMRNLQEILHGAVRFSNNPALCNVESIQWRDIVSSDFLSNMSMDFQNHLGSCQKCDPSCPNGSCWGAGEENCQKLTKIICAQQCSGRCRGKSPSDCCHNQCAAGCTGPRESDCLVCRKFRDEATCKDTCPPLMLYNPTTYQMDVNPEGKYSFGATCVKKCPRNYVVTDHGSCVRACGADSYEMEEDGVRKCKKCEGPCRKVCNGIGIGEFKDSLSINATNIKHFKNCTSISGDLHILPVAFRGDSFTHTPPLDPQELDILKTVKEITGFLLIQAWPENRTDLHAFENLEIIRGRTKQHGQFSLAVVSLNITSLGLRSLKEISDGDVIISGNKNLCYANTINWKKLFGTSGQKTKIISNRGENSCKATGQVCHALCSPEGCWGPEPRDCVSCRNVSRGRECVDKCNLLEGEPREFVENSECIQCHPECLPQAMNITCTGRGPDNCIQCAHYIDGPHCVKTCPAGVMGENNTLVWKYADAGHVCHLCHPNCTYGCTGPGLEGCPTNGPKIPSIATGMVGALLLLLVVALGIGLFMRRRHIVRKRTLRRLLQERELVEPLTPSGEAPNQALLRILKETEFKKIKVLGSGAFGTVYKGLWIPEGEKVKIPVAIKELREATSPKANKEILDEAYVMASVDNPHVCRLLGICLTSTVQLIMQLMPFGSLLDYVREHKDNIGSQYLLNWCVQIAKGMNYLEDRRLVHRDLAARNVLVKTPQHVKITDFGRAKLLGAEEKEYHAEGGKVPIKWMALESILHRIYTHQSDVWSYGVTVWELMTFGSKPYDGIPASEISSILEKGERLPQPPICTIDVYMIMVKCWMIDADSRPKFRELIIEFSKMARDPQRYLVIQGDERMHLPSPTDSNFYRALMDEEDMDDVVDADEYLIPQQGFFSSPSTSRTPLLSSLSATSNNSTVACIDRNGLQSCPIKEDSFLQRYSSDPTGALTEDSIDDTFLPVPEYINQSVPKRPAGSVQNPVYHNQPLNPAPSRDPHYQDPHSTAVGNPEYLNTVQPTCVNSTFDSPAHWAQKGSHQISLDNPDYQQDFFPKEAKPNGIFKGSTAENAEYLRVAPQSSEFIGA
Chain of EGFR (L858R/T790M) (P00533 25-1210 T790M/L858R): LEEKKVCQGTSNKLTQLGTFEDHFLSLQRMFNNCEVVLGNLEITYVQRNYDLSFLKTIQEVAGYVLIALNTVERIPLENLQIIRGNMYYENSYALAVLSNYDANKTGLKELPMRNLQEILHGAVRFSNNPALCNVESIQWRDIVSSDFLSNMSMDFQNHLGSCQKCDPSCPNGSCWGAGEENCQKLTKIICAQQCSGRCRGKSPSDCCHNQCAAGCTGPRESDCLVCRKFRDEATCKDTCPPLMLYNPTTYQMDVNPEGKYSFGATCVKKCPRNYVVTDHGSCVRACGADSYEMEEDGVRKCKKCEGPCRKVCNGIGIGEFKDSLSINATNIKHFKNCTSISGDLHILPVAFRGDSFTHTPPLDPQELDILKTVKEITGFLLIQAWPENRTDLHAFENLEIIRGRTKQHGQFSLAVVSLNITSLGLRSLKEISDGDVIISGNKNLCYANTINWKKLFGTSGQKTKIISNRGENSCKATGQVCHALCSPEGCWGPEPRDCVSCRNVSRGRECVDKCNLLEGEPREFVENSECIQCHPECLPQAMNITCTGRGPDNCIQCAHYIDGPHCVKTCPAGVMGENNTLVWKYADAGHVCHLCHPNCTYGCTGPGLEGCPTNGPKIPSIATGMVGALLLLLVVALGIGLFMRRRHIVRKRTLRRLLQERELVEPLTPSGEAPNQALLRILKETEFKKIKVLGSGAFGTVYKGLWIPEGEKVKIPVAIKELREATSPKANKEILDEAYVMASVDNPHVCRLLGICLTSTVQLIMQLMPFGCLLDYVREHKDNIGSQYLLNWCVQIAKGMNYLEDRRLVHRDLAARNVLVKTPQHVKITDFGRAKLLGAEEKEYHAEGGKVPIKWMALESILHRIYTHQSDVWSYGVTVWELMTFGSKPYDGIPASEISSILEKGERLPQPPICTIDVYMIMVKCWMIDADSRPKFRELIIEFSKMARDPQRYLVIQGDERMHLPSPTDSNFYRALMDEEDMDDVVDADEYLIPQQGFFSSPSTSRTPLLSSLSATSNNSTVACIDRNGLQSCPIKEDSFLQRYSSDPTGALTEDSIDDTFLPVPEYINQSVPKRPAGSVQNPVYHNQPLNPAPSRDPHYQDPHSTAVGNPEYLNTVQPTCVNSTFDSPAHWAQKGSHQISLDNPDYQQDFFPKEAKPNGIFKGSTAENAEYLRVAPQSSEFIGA
Chain of EGFR (WT) (P00533 25-1210): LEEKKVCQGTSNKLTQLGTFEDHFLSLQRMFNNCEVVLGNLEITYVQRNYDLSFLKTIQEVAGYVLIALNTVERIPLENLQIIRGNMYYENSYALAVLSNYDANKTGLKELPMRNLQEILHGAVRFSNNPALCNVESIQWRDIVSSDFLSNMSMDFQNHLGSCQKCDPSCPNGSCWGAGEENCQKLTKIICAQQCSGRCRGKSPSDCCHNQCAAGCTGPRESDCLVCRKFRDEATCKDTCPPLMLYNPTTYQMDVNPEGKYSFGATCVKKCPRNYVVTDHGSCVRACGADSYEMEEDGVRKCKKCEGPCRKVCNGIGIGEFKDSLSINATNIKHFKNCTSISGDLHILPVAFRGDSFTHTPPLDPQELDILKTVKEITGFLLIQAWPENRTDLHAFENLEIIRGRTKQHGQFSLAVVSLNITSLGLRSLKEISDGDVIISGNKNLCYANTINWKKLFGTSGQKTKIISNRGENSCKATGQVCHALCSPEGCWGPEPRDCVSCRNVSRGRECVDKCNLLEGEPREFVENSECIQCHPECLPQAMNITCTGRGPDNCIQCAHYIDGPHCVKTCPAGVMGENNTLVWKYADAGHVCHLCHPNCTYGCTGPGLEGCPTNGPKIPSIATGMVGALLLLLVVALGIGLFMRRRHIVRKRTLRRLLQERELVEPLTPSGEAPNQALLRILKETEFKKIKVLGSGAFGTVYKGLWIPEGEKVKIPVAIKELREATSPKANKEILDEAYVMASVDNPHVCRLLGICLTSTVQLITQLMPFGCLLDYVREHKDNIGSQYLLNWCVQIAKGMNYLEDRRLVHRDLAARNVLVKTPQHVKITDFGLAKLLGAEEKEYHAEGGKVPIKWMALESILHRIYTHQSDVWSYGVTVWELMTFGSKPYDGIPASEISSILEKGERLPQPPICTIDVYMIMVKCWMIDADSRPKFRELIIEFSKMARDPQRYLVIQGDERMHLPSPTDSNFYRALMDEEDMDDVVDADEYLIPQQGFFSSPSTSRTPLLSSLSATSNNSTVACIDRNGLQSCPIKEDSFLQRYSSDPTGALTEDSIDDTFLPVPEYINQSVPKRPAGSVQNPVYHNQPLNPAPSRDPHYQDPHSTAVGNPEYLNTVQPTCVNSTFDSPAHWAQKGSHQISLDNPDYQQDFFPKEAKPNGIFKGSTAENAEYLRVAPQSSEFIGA

Consider `Cc1cc2cc(n1)-c1cnn(C)c1OC[C@H](C1CC1)CCCn1c(nc3cc(NC4COC4)ccc31)NC2=O` [Example 60], for which the results for the IC50 against EGFR (L858R/T790M), at EGFR (L858R/T790M/C797S) and at EGFR (WT) were 0.09 nM, 0.081 nM and 8 nM, respectively.
On the same counts, the results for `Cc1cc2cc(n1)-c1cnn(C)c1OCCC[C@@H](C1CC1)CN1/C(=N/C2=O)Nc2cc(NC3(C(F)(F)F)COC3)ccc21` [Example 88] are 0.01 nM, 0.177 nM and 6 nM.
On the same counts, the results for `Cc1cc2cc(n1)-c1cnn(C)c1OCCC[C@@H](C1CC1)CN1/C(=N/C2=O)Nc2cc(N[C@H]3CC[C@@H](N(C)C)CC3)ccc21` [Example 26] are 0.025 nM, 0.017 nM and 0.24 nM.
Taken in the same sequence, the figures for `Cc1cc2cc(n1)-c1cnn(C)c1OCCC[C@@H](C1CC1)CN1/C(=N/C2=O)Nc2cc(N[C@H]3CC[C@H](N(C)C)CC3)ccc21` [Example 25] were 0.021 nM, 0.014 nM and 0.049 nM.
On to `Cc1cc2cc(n1)-c1cnn(C)c1OCCC[C@@H](C1CC1)CN1/C(=N/C2=O)Nc2cc(N[C@H](C)C3COC3)ccc21` [Example 39], for which the 50% inhibitory concentration (IC50) was determined as 0.04 nM against EGFR (L858R/T790M), 0.027 nM at EGFR (L858R/T790M/C797S) and 0.61 nM against EGFR (WT).
On the same counts, the results for `C[C@H](Nc1ccc2c(c1)N/C1=N\C(=O)c3cc(F)nc(c3)-c3cnn(C)c3OCCC[C@@H](C3CC3)CN12)C(F)(F)F` [Example 9] are 0.45 nM, 0.5 nM and 0.56 nM.
Regarding `Cc1cc2cc(n1)-c1cnn(C)c1OC[C@H](C1CC1)CCCn1c(nc3ccc(NC4COC4)cc31)NC2=O` [Example 59], the results for the IC50 against EGFR (L858R/T790M), against EGFR (L858R/T790M/C797S) and against EGFR (WT) were 0.081 nM, 0.085 nM and 5.9 nM, respectively.
Taken in the same sequence, the figures for `Cc1cc2cc(n1)-c1cnn(C)c1OCCC[C@@H](C1CC1)CN1/C(=N/C2=O)Nc2ccc(C=CCCN(C)C)cc21` [Example 24] were 0.031 nM, 0.02 nM and 1.1 nM.

The term IC50 denotes the midpoint of a concentration-inhibition curve. High values mean weaker potency in that assay, low ones greater potency in that assay.

For the origin of these results see patent US20250034165A1, “COMPOUND CONTAINING CYCLOALKYL OR HALOALKYL” (CHIA TAI TIANQING PHARMACEUTICAL GROUP CO., LTD., priority 2021, published 2025).
